According to patent US20040006236A1, “Diaminopropionic acid derivatives” (priority 1999, published 2004):

Legend:
[1] = molecular target: T1, LFA-1 binding to immobilized ICAM-1 (Homo sapiens, UniProt P05107+P20701); test: LFA-1/ICAM-1 protein-protein assay (solid-phase ELISA); details: read-out: LFA-1/ICAM-1 Protein-Protein Assay IC50
T1 construct: made in house; host or cells: transfected 293 cells (LFA-1)
Method in brief: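 Human 5dICAM-Ig (ICAM-1 extracellular domain–IgG Fc) coated on plates; membrane-bound LFA-1 from transfected 293 cells (280 ng/mL) added with compound in Mn2+-containing HEPES buffer pH 7.2, 2 h at 37° C. Bound LFA-1 detected via anti-β2 antibody and HRP/TMB at 450 nm; IC50s determined.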

[2] = tested on: T lymphocyte proliferation (C57BI/6 spleen cells with irradiated BALB/c spleen cells); test: Mixed lymphocyte reaction (MLR), one-way; assay type: cell-based, mice; details: Mus musculus, T-lymphocyte; read-out: MLR IC50
Method in brief: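 One-way murine MLR: C57BI/6 responder splenocytes proliferate against irradiated BALB/c stimulators while exposed to serially diluted antagonists in supplemented RPMI1640 for 3 days. Proliferation read as [3H]-thymidine uptake over a final 6 h pulse (0.5 μCi/well), scintillation counted.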

T1 sequence (P20701 26-1170): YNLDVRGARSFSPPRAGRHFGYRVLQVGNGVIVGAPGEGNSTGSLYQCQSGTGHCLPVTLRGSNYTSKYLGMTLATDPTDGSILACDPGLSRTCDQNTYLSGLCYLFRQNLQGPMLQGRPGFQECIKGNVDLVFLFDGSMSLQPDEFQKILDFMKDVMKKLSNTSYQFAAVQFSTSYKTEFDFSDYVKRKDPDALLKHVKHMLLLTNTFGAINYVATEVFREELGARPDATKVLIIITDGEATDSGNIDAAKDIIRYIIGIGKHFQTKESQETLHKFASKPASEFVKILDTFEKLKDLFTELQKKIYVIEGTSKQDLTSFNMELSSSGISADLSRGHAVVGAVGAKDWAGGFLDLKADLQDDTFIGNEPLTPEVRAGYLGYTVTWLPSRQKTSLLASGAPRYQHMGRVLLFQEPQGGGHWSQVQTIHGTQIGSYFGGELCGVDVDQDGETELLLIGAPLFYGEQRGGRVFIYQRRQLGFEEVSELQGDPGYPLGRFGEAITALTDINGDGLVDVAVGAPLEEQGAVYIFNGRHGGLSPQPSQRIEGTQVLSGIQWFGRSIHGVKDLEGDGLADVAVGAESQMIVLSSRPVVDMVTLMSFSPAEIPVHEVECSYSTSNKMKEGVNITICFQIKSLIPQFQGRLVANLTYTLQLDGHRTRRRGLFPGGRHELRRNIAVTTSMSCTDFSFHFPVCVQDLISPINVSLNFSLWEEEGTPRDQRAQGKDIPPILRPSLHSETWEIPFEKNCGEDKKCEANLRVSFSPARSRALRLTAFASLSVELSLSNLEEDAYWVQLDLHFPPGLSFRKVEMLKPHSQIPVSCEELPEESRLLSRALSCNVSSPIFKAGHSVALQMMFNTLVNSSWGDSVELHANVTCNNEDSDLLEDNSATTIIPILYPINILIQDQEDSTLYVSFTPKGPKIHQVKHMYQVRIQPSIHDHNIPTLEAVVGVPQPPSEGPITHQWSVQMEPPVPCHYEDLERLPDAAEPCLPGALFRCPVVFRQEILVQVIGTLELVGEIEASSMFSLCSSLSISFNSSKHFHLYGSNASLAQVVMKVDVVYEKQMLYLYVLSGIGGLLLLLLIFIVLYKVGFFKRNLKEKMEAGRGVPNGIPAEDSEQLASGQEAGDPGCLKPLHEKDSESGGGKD
T1 sequence (P05107 23-769): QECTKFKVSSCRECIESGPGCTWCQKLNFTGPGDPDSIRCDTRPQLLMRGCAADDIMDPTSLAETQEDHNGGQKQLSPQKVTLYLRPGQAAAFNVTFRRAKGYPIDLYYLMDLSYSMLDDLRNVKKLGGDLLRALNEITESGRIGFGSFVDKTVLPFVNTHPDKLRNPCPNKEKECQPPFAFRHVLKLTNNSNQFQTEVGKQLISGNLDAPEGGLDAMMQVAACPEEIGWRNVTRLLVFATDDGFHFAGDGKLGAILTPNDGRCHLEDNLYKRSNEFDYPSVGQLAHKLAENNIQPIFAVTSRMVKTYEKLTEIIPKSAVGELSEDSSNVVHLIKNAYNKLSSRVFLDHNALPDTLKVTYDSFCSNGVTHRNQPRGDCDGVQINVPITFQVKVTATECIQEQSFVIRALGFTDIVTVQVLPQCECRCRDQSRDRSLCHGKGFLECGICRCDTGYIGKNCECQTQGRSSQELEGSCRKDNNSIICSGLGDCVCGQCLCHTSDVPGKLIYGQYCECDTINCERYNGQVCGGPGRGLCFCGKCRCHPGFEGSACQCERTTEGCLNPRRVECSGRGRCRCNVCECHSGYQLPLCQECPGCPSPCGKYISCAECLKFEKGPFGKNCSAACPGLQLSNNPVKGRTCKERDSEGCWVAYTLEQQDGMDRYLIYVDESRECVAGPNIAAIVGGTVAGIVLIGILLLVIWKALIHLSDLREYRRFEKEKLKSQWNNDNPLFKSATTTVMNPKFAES

SMILES | IC50 [1] [nM] | IC50 [2] [nM]
O=C(NCc1cccc2[nH]ccc12)c1ccc(C(=O)N[C@@H](CNC(=O)c2ccoc2)C(=O)O)c(Cl)c1 [Example 316] | 1.3 | 425
Cc1ccc(C(=O)NC[C@H](NC(=O)c2ccc(C(=O)NCc3cccc4[nH]ccc34)cc2Cl)C(=O)O)s1 [Example 317] | 3.5 | 1750
O=C(NCc1cccc2c1CCN2)c1ccc(C(=O)N[C@@H](CNC(=O)c2cccs2)C(=O)O)c(Cl)c1 [Example 318, 3-(thiophene-2-carbonyl)amino-N-[2-chloro-4-[[(2,3-dihydro-1H-indol-4-ylmethyl)amino]carbonyl]benzoyl]-L-alanine] | 1.9 | 1850
O=C(CCc1cccc(O)c1)c1ccc(C(=O)N[C@@H](CNC(=O)c2cccs2)C(=O)O)c(Cl)c1 [Example 319, N-[2-chloro-4-[1-oxo-3-(3-hydroxyphenyl)propyl]benzoyl]-3-(thiophene-2-carbonyl)amino-L-alanine] | 1.4 | 665
O=C(NC[C@H](NC(=O)c1ccc(-n2nnnc2NCc2cccc(O)c2)cc1Cl)C(=O)O)c1cccs1 [Example 321] | 2.6 | 775
O=C(NCc1cccc2[nH]cnc12)c1ccc(C(=O)N[C@@H](CNC(=O)c2cccs2)C(=O)O)c(Cl)c1 [Example 322] | 8.5 | 3600
Cc1cc(C(=O)NCc2cccc(O)c2)ccc1C(=O)N[C@@H](CNC(=O)c1cccs1)C(=O)O [Example 323] | 1.3 | 325
O=C(NCc1cccc2[nH]ncc12)c1ccc(C(=O)N[C@@H](CNC(=O)c2cccs2)C(=O)O)c(Cl)c1 [Example 327, N-[2-chloro-4-[[[(1H-indazol-4-yl)methyl]amino]carbonyl]benzoyl]-3-(thiophene-2-carbonyl)amino-L-alanine] | 1.8 | 180
O=C(NCc1cccc2[nH]ccc12)c1ccc(C(=O)N[C@@H](CNC(=O)c2cccs2)C(=O)O)c(Br)c1 [Example 329] | 2.7 | 420
Cc1cc(C(=O)NCc2cccc(O)c2)cc(C)c1C(=O)N[C@@H](CNC(=O)c1cccs1)C(=O)O [Example 330] | 1.4 | 32
C[C@@H](NC(=O)c1ccc(C(=O)N[C@@H](CNC(=O)c2cccs2)C(=O)O)c(Br)c1)c1cccc2ccccc12 [Example 332] | 4.8 | 1540
Cc1cc(C(=O)N[C@H](C)c2cccc3ccccc23)cc(C)c1C(=O)N[C@@H](CNC(=O)c1cccs1)C(=O)O [Example 333] | 3.5 | 180
Nc1cccc(CNC(=O)c2ccc(C(=O)N[C@@H](CNC(=O)c3cccs3)C(=O)O)c(Br)c2)c1 [Example 334, N-[4-[[[(3-aminophenyl)methyl]amino]carbonyl]-2-bromobenzoyl]-3-(thiophene-2-carbonyl)amino-L-alanine] | 3 | 495

Second part, led by results:

IC50 [1] [nM] | SMILES | IC50 [2] [nM]
2.1 | Cc1cc(C(=O)NCc2cccc(O)c2)cc(C)c1C(=O)N[C@@H](CNC(=O)c1ccsc1)C(=O)O [Example 336, N-[2,6-dimethyl-4-[[[(3-hydroxyphenyl)methyl]amino]carbonyl]benzoyl]-3-(thiophene-3-carbonyl)amino-L-alanine] | 33
3.7 | Cc1cc(C(=O)NCc2cccc(O)c2)cc(C)c1C(=O)N[C@@H](CNC(=O)c1cc(F)cc(F)c1)C(=O)O [Example 337, N-[2,6-dimethyl-4-[[[(3-hydroxyphenyl)methyl]amino]carbonyl]benzoyl]-3-(3,5-difluorobenzoylamino)-L-alanine] | 59
1.5 | Cc1cc(C(=O)NCc2cccc(O)c2)cc(Cl)c1C(=O)N[C@@H](CNC(=O)c1cccs1)C(=O)O [Example 338, N-[2-chloro-4-[[[(3-hydroxyphenyl)methyl]amino]carbonyl]-6-methylbenzoyl]-3-[(thiophene-2-carbonyl)amino]-L-alanine] | 21
1.7 | Cc1cc(C(=O)NCc2cccc(O)c2)cc(Cl)c1C(=O)N[C@@H](CNC(=O)c1ccsc1)C(=O)O [Example 339, N-[2-chloro-4-[[[(3-hydroxyphenyl)methyl]amino]carbonyl]-6-methylbenzoyl]-3-[(thiophene-3-carbonyl)amino]-L-alanine] | 29
0.3 | Cc1cc(C(=O)NCc2cccc(O)c2)cc(Cl)c1C(=O)N[C@@H](CNC(=O)c1cc(F)cc(F)c1)C(=O)O [Example 340, N-[2-chloro-4-[[[(3-hydroxyphenyl)methyl]amino]carbonyl]-6-methylbenzoyl]-3-[(3,5-difluorobenzoyl)amino]-L-alanine] | 36
1.6 | O=C(NCc1cccc(O)c1)c1cc(Cl)c(C(=O)N[C@@H](CNC(=O)c2cccs2)C(=O)O)c(Cl)c1 [Example 342, N-[2,6-dichloro-4-[[[(3-hydroxyphenyl)methyl]amino]carbonyl]benzoyl]-3-[(thiophene-2-carbonyl)amino]-L-alanine] | 27
2.5 | O=C(NCc1cccc(O)c1)c1cc(Cl)c(C(=O)N[C@@H](CNC(=O)c2ccsc2)C(=O)O)c(Cl)c1 [Example 343, N-[2,6-dichloro-4-[[[(3-hydroxyphenyl)methyl]amino]carbonyl]benzoyl]-3-[(thiophene-3-carbonyl)amino]-L-alanine] | 30
0.3 | O=C(NCc1cccc(O)c1)c1cc(Cl)c(C(=O)N[C@@H](CNC(=O)c2cc(F)cc(F)c2)C(=O)O)c(Cl)c1 [Example 344, N-[2,6-dichloro-4-[[[(3-hydroxyphenyl)methyl]amino]carbonyl]benzoyl]-3-[(3,5-difluorobenzoyl)amino]-L-alanine] | 34
0.2 | O=C(NCc1cccc(O)c1)c1cc(Cl)c(C(=O)N[C@@H](CNC(=O)c2cc(O)cc(O)c2)C(=O)O)c(Cl)c1 [Example 345, N-[2,6-dichloro-4-[[[(3-hydroxyphenyl)methyl]amino]carbonyl]benzoyl]-3-(3,5-dihydroxybenzoylamino)-L-alanine] | 2
